Assay results: patent US9732075B2, “Benzimidazole-proline derivatives” (IDORSIA PHARMACEUTICALS LTD, priority 2012, dated 2017)

Tests used:
human orexin-1 receptor = human orexin-1 receptor (Homo sapiens (Human), UniProt O43613); test: In vitro assay: intracellular calcium measurements (FLIPR), antagonistic activity; assay type: cell-based; conditions: CHO cells expressing human orexin-1 receptor, orexin-A agonist, geometric mean, read-out: IC50 Ox1
Method in brief: (§1)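 Orexin-A-evoked calcium rise (3 nM final, roughly EC70) was recorded with fluo-4 in recombinant CHO cells, human receptor subtype 1 or 2.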

human orexin-2 receptor = human orexin-2 receptor (Homo sapiens (Human), UniProt O43614); test: as above; assay type: cell-based; conditions: CHO cells expressing human orexin-2 receptor, orexin-A agonist, geometric mean, read-out: IC50 Ox2
human orexin-2 receptor, sequence (O43614 whole entry): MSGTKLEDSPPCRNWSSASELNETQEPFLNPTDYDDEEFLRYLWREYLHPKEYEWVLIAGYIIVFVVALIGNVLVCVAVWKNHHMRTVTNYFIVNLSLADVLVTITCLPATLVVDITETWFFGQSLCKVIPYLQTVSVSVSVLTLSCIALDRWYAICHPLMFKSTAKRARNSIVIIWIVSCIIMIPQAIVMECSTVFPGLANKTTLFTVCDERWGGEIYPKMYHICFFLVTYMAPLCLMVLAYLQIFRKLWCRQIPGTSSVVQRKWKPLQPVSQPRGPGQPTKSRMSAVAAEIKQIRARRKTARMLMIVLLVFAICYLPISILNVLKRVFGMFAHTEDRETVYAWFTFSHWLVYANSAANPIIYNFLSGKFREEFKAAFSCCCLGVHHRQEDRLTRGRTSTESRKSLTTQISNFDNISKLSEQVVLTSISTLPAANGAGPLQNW
Method in brief: as §1

human orexin-1 receptor, sequence (O43613 whole entry): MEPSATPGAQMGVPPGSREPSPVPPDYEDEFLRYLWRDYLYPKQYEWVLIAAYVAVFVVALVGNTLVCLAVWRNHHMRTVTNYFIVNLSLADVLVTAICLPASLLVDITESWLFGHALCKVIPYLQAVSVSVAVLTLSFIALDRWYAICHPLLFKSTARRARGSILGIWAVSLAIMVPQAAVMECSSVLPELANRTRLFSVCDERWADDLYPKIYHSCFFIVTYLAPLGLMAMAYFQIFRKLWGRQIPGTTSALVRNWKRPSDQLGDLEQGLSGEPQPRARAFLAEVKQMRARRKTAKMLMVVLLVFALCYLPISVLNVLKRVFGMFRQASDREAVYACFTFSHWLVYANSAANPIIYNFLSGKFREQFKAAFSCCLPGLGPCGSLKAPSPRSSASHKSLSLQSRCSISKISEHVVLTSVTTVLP

| SMILES | IC50 (human orexin-1 receptor) | IC50 (human orexin-2 receptor) |
| --- | --- | --- |
| CO[C@H]1CN(C(=O)c2cc(C)ccc2-n2nccn2)C(C)(c2nc3c(C)cccc3[nH]2)C1 (some centres unmarked) [Ex. 3.26] | 0.05 µM | 0.066 µM |
| CO[C@H]1CN(C(=O)c2nc(C)sc2-c2cccc(Cl)c2)C(C)(c2nc3c(C)c(Cl)ccc3[nH]2)C1 (some centres unmarked) [Ex. 3.27] | 0.005 µM | 0.016 µM |
| CO[C@H]1CN(C(=O)c2nc(C)sc2-c2cccc(Cl)c2)C(C)(c2nc3c(C)cccc3[nH]2)C1 (some centres unmarked) [Ex. 3.28] | 0.01 µM | 0.019 µM |
| CO[C@H]1CN(C(=O)c2nc(C)sc2-c2ccccc2)C(C)(c2nc3c(C)cccc3[nH]2)C1 (some centres unmarked) [Ex. 3.29] | 0.028 µM | 0.02 µM |
| CO[C@H]1CN(C(=O)c2cc(C)ccc2-n2nccn2)[C@](C)(c2nc3c(C)c(Cl)ccc3[nH]2)C1 [Ex. 3.30] | 0.002 µM | 0.002 µM |
| CO[C@H]1CN(C(=O)c2nc(C)sc2-c2cccc(Cl)c2)[C@](C)(c2nc3c(C)c(Cl)ccc3[nH]2)C1 [Ex. 3.31] | 0.005 µM | 0.004 µM |
| CO[C@@H]1C[C@@H](c2nc3ccc(Cl)c(C)c3[nH]2)N(C(=O)c2nc(C)sc2-c2cccc(C)c2)C1 [Ex. 3.32] | 0.0009 µM | 0.005 µM |
| CO[C@@H]1C[C@@H](c2nc3ccc(Cl)c(C)c3[nH]2)N(C(=O)c2nc(N(C)C)sc2-c2ccc(C)c(C)c2)C1 [Ex. 3.33] | 0.0008 µM | 0.01 µM |
| CO[C@@H]1C[C@@H](c2nc3ccc(Cl)c(C)c3[nH]2)N(C(=O)c2nc(C)sc2-c2ccc(C)c(C)c2)C1 [Ex. 3.34] | 0.0009 µM | 0.008 µM |
| CO[C@@H]1C[C@@H](c2nc3ccc(Cl)c(C)c3[nH]2)N(C(=O)c2nc(C)sc2-c2ccc(Cl)cc2)C1 [Ex. 3.35] | 0.003 µM | 0.004 µM |
| CO[C@@H]1C[C@@H](c2nc3ccc(Cl)c(C)c3[nH]2)N(C(=O)c2nc(C)sc2-c2ccc(C)cc2)C1 [Ex. 3.36] | 0.005 µM | 0.009 µM |
| COc1ccc(-c2sc(C)nc2C(=O)N2C[C@H](OC)C[C@H]2c2nc3ccc(Cl)c(C)c3[nH]2)cc1 [Ex. 3.37] | 0.008 µM | 0.008 µM |
| CO[C@@H]1C[C@@H](c2nc3ccc(Cl)c(C)c3[nH]2)N(C(=O)c2ccccc2-c2ccc(C)c(C)c2)C1 [Ex. 3.38] | 0.006 µM | 0.013 µM |
| CO[C@@H]1C[C@@H](c2nc3ccc(Cl)c(C)c3[nH]2)N(C(=O)c2ccccc2-c2ccccc2)C1 [Ex. 3.39] | 0.074 µM | 0.057 µM |
| CO[C@@H]1C[C@@H](c2nc3ccc(Cl)c(C)c3[nH]2)N(C(=O)c2ccccc2-c2ccc(F)c(C)c2)C1 [Ex. 3.40] | 0.008 µM | 0.007 µM |
| CO[C@@H]1C[C@@H](c2nc3ccc(Cl)c(C)c3[nH]2)N(C(=O)c2nc(N(C)C)sc2-c2cccc(Cl)c2)C1 [Ex. 3.41] | 0.0007 µM | 0.007 µM |
| CO[C@H]1CN(C(=O)c2c(F)cccc2-n2nccn2)C(C)(c2nc3c(C)c(Cl)ccc3[nH]2)C1 (some centres unmarked) [Ex. 3.42] | 0.193 µM | 0.395 µM |
| CO[C@H]1CN(C(=O)c2cc(F)ccc2-n2nccn2)C(C)(c2nc3c(C)c(Cl)ccc3[nH]2)C1 (some centres unmarked) [Ex. 3.43] | 0.01 µM | 0.013 µM |
| CO[C@H]1CN(C(=O)c2cc(Cl)ccc2-n2nccn2)C(C)(c2nc3c(C)c(Cl)ccc3[nH]2)C1 (some centres unmarked) [Ex. 3.44] | 0.003 µM | 0.006 µM |
| CO[C@H]1CN(C(=O)c2ccccc2-n2nccn2)C(C)(c2nc3c(C)c(Cl)ccc3[nH]2)C1 (some centres unmarked) [Ex. 3.45] | 0.016 µM | 0.019 µM |
| COc1ccc(-n2nccn2)c(C(=O)N2C[C@H](OC)CC2(C)c2nc3c(C)c(Cl)ccc3[nH]2)c1F (some centres unmarked) [Ex. 3.46] | 0.223 µM | 0.288 µM |
| CO[C@H]1CN(C(=O)c2c(-n3nccn3)ccc(C)c2F)C(C)(c2nc3c(C)c(Cl)ccc3[nH]2)C1 (some centres unmarked) [Ex. 3.47] | 0.225 µM | 0.471 µM |

| SMILES | IC50 (human orexin-1 receptor) | IC50 (human orexin-2 receptor) |
| --- | --- | --- |
| CO[C@H]1CN(C(=O)c2ccc(C)cc2-n2nccn2)C(C)(c2nc3c(C)c(Cl)ccc3[nH]2)C1 (some centres unmarked) [Ex. 3.49] | 0.013 µM | 0.018 µM |
| CO[C@H]1CN(C(=O)c2cc(C(F)(F)F)ccc2-n2nccn2)C(C)(c2nc3c(C)c(Cl)ccc3[nH]2)C1 (some centres unmarked) [Ex. 3.50] | 0.232 µM | 0.252 µM |
| CO[C@H]1CN(C(=O)c2cc(OC(F)(F)F)ccc2-n2nccn2)C(C)(c2nc3c(C)c(Cl)ccc3[nH]2)C1 (some centres unmarked) [Ex. 3.51] | 0.094 µM | 0.044 µM |
| COc1cc(C(=O)N2C[C@H](OC)CC2(C)c2nc3c(C)c(Cl)ccc3[nH]2)c(-n2nccn2)cc1OC (some centres unmarked) [Ex. 3.52] | 0.028 µM | 0.027 µM |
| CO[C@H]1CN(C(=O)c2cc(C)ccc2-n2cccn2)C(C)(c2nc3c(C)c(Cl)ccc3[nH]2)C1 (some centres unmarked) [Ex. 3.53] | 0.01 µM | 0.02 µM |
| CO[C@H]1CN(C(=O)c2ccccc2-n2cccn2)C(C)(c2nc3c(C)c(Cl)ccc3[nH]2)C1 (some centres unmarked) [Ex. 3.54] | 0.052 µM | 0.044 µM |
| CO[C@H]1CN(C(=O)c2nc(C)ccc2-n2cccn2)C(C)(c2nc3c(C)c(Cl)ccc3[nH]2)C1 (some centres unmarked) [Ex. 3.55] | 0.018 µM | 0.045 µM |
| CO[C@H]1CN(C(=O)c2nc(C)ccc2-n2nccn2)C(C)(c2nc3c(C)c(Cl)ccc3[nH]2)C1 (some centres unmarked) [Ex. 3.56] | 0.018 µM | 0.037 µM |
| Cc1ccc(-n2nccn2)c(C(=O)N2CC[C@H](C)[C@H]2c2nc3cc(C)ccc3[nH]2)c1 [Ex. 4.2] | 0.132 µM | 0.669 µM |
| Cc1ccc2[nH]c([C@@H]3[C@@H](C)CCN3C(=O)c3nc(C)sc3-c3cccc(Cl)c3)nc2c1 [Ex. 4.3] | 0.008 µM | 1.35 µM |
| Cc1nc(C(=O)N2CC[C@H](C)[C@H]2c2nc3cccc(C)c3[nH]2)c(-c2ccccc2)s1 [Ex. 4.4] | 0.011 µM | 1.17 µM |
| Cc1ccc2[nH]c([C@@H]3[C@@H](C)CCN3C(=O)c3nc(C)sc3-c3ccccc3)nc2c1 [Ex. 4.5] | 0.029 µM | 3.19 µM |
| Cc1nc(C(=O)N2CC[C@H](C)[C@H]2c2nc3ccccc3[nH]2)c(-c2cccc(Cl)c2)s1 [Ex. 4.6] | 0.029 µM | 3.89 µM |
| Cc1nc(C(=O)N2CC[C@H](C)[C@H]2c2nc3cccc(C)c3[nH]2)c(-c2cccc(Cl)c2)s1 [Ex. 4.7] | 0.002 µM | 0.603 µM |
| Cc1nc(C(=O)N2CC[C@H](C)[C@H]2c2nc3cc(C#N)ccc3[nH]2)c(-c2cccc(Cl)c2)s1 [Ex. 4.8] | 0.068 µM | 9.93 µM |
| Cc1nc(C(=O)N2CC[C@H](C)[C@H]2c2nc3cc(C(F)(F)F)ccc3[nH]2)c(-c2cccc(Cl)c2)s1 [Ex. 4.9] | 0.002 µM | 2.78 µM |
| Cc1nc(C(=O)N2CC[C@H](C)[C@H]2c2nc3cc(C)c(C)cc3[nH]2)c(-c2cccc(Cl)c2)s1 [Ex. 4.10] | 0.002 µM | 0.833 µM |
| Cc1nc(C(=O)N2CC[C@H](C)[C@H]2c2nc3cc(Cl)ccc3[nH]2)c(-c2cccc(Cl)c2)s1 [Ex. 4.11] | 0.01 µM | 4.06 µM |
| Cc1nc(C(=O)N2CC[C@H](C)[C@H]2c2nc3cc(F)c(F)cc3[nH]2)c(-c2cccc(Cl)c2)s1 [Ex. 4.12] | 0.023 µM | 4.87 µM |
| COC(=O)c1cccc2nc([C@@H]3[C@@H](C)CCN3C(=O)c3nc(C)sc3-c3cccc(Cl)c3)[nH]c12 [Ex. 4.13] | 0.026 µM | 4.91 µM |
| COc1cccc2[nH]c([C@@H]3[C@@H](C)CCN3C(=O)c3nc(C)sc3-c3cccc(Cl)c3)nc12 [Ex. 4.14] | 0.015 µM | 4.03 µM |
